The supplement of paper PMC6045584
± gives the standard deviation of the averaged measurements.

Each test system was assayed with CCN(CC)CCCCNc1ncc2cc(-c3cc(OC)cc(OC)c3)c(NC(=O)NC(C)(C)C)nc2n1 (assay: surviving fraction relative to DMSO-only wells; higher = less growth inhibition). Settings: 0.5 nM; exposure time: 5 days.
How it was run: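 Tumour cell lines were seeded in log phase at 250–500 cells per well into 384-well plates. Starting 24 hours later, inhibitors were present continuously for five days at 0.5, 1, 5, 10, 50, 100, 500 and 1000 nM. Surviving fraction, from CellTiter-Glo luminescence, is normalised to the median of DMSO-only wells. Three screens per line were required, with replicate Pearson r >0.7 and median Z' >0.3 for a line to be kept.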

SUM149.B1*.S BREAST and 93VU HEADNECK are within error of each other in surviving fraction: 0.852 ± 0.049 for the first, 0.952 ± 0.063 for the second.

LM7 BONE and 143B BONE are within error of each other in surviving fraction: 0.989 ± 0.039 for the first, 0.941 ± 0.078 for the second.

SUM159 BREAST and SUM149 BREAST are within error of each other in surviving fraction: 1.14 ± 0.3 for the first, 0.881 ± 0.14 for the second.

Going from MDAMB361 BREAST to SAOS2 BONE, the surviving fraction rises from 0.945 ± 0.025 to 1.09 ± 0.035.

ASKA SYNOVIAL and HCC1395 BREAST are within error of each other in surviving fraction: 1.04 ± 0.044 for the first, 0.991 ± 0.2 for the second.

HCC1954 BREAST and CME SYNOVIAL are within error of each other in surviving fraction: 1.01 ± 0.021 for the first, 1.08 ± 0.089 for the second.

Going from VCAP PROSTATE to YAMATO SYNOVIAL, the surviving fraction falls from 0.963 ± 0.068 to 0.852 ± 0.029.

HCC202 BREAST and HELA CERVIX are within error of each other in surviving fraction: 1.05 ± 0.052 for the first, 0.979 ± 0.028 for the second.

SG27 HEADNECK and CAL72 BONE are within error of each other in surviving fraction: 0.947 ± 0.15 for the first, 1.053 ± 0.0092 for the second.

Compared with MDAMB134 BREAST, C33A CERVIX is lower in surviving fraction: 1 ± 0.079 for the first, 0.832 ± 0.044 for the second.

SKBR3 BREAST and MHM BONE are within error of each other in surviving fraction: 0.9 ± 0.11 for the first, 0.991 ± 0.026 for the second.

First: VP229 BREAST
Second: SYO1 SYNOVIAL
The surviving fraction of the first is higher: 1.15 ± 0.079 for the first, 0.786 ± 0.081 for the second.

ZR751 BREAST and KPD BONE are within error of each other in surviving fraction: 0.946 ± 0.032 for the first, 0.978 ± 0.07 for the second.

SIHA CERVIX and DU4475 BREAST are within error of each other in surviving fraction: 0.945 ± 0.075 for the first, 0.845 ± 0.2 for the second.

Going from BT549 BREAST to COLO320DM LARGE INTESTINE, the surviving fraction falls from 1.16 ± 0.13 to 0.959 ± 0.04.

T47D BREAST and H23 LUNG are within error of each other in surviving fraction: 0.967 ± 0.03 for the first, 0.958 ± 0.041 for the second.

Compared with NCIH441 LUNG, HCT15 LARGE INTESTINE is lower in surviving fraction: 1 ± 0.052 for the first, 0.875 ± 0.033 for the second.

Going from SCC90 HEADNECK to MDAMB453 BREAST, the surviving fraction rises from 0.884 ± 0.044 to 0.981 ± 0.029.

Compared with MG63 BONE, A549 LUNG is higher in surviving fraction: 0.9463 ± 0.0067 for the first, 0.975 ± 0.015 for the second.

MDAMB468 BREAST was tested, and the surviving fraction was 0.929 ± 0.043.

Same assay, conditions: 1 nM; exposure time: 5 days

SUM149.B1*.S BREAST and 93VU HEADNECK are within error of each other in surviving fraction: 1 ± 0.017 for the first, 0.975 ± 0.062 for the second.

LM7 BONE and 143B BONE are within error of each other in surviving fraction: 0.966 ± 0.075 for the first, 0.997 ± 0.026 for the second.

SUM159 BREAST and SUM149 BREAST are within error of each other in surviving fraction: 1.1 ± 0.2 for the first, 1.12 ± 0.057 for the second.

First: MDAMB361 BREAST
Second: SAOS2 BONE
The surviving fraction of the first is lower: 0.917 ± 0.056 for the first, 1.195 ± 0.011 for the second.

Compared with ASKA SYNOVIAL, HCC1395 BREAST is lower in surviving fraction: 1.14 ± 0.029 for the first, 0.785 ± 0.093 for the second.

Going from HCC1954 BREAST to CME SYNOVIAL, the surviving fraction rises from 1.04 ± 0.04 to 1.254 ± 0.0095.

VCAP PROSTATE and YAMATO SYNOVIAL are within error of each other in surviving fraction: 1.07 ± 0.06 for the first, 1.2 ± 0.13 for the second.

HCC202 BREAST and HELA CERVIX are within error of each other in surviving fraction: 1.31 ± 0.39 for the first, 0.994 ± 0.034 for the second.

SG27 HEADNECK and CAL72 BONE are within error of each other in surviving fraction: 1.03 ± 0.087 for the first, 1.08 ± 0.054 for the second.

MDAMB134 BREAST and C33A CERVIX are within error of each other in surviving fraction: 0.807 ± 0.069 for the first, 0.831 ± 0.077 for the second.

SKBR3 BREAST and MHM BONE are within error of each other in surviving fraction: 0.967 ± 0.072 for the first, 0.993 ± 0.014 for the second.

First: VP229 BREAST
Second: SYO1 SYNOVIAL
The surviving fraction of the first is higher: 1.09 ± 0.031 for the first, 0.961 ± 0.052 for the second.

ZR751 BREAST and KPD BONE are within error of each other in surviving fraction: 1.03 ± 0.063 for the first, 1.02 ± 0.033 for the second.

SIHA CERVIX and DU4475 BREAST are within error of each other in surviving fraction: 0.972 ± 0.043 for the first, 0.76 ± 0.22 for the second.

BT549 BREAST and COLO320DM LARGE INTESTINE are within error of each other in surviving fraction: 1.16 ± 0.11 for the first, 1.14 ± 0.037 for the second.

T47D BREAST and H23 LUNG are within error of each other in surviving fraction: 1.02 ± 0.028 for the first, 0.998 ± 0.065 for the second.

NCIH441 LUNG and HCT15 LARGE INTESTINE are within error of each other in surviving fraction: 1.04 ± 0.052 for the first, 0.981 ± 0.02 for the second.

First: SCC90 HEADNECK
Second: MDAMB453 BREAST
The surviving fraction of the first is lower: 0.96 ± 0.036 for the first, 1.03 ± 0.032 for the second.

MG63 BONE and A549 LUNG are within error of each other in surviving fraction: 0.983 ± 0.012 for the first, 0.97 ± 0.049 for the second.

With MDAMB468 BREAST the surviving fraction was 0.959 ± 0.06.

Same assay, conditions: 5 nM; exposure time: 5 days

SUM149.B1*.S BREAST and 93VU HEADNECK are within error of each other in surviving fraction: 0.952 ± 0.024 for the first, 1.02 ± 0.1 for the second.

LM7 BONE and 143B BONE are within error of each other in surviving fraction: 1.08 ± 0.13 for the first, 0.954 ± 0.068 for the second.

SUM159 BREAST and SUM149 BREAST are within error of each other in surviving fraction: 1.18 ± 0.36 for the first, 0.998 ± 0.037 for the second.

First: MDAMB361 BREAST
Second: SAOS2 BONE
The surviving fraction of the first is lower: 0.855 ± 0.092 for the first, 1.2 ± 0.077 for the second.

Compared with ASKA SYNOVIAL, HCC1395 BREAST is lower in surviving fraction: 1.19 ± 0.046 for the first, 0.968 ± 0.14 for the second.

Going from HCC1954 BREAST to CME SYNOVIAL, the surviving fraction rises from 0.945 ± 0.058 to 1.24 ± 0.14.

Going from VCAP PROSTATE to YAMATO SYNOVIAL, the surviving fraction rises from 1.04 ± 0.047 to 1.19 ± 0.058.

HCC202 BREAST and HELA CERVIX are within error of each other in surviving fraction: 1.3 ± 0.53 for the first, 0.971 ± 0.042 for the second.

SG27 HEADNECK and CAL72 BONE are within error of each other in surviving fraction: 1.01 ± 0.12 for the first, 1.08 ± 0.082 for the second.

MDAMB134 BREAST and C33A CERVIX are within error of each other in surviving fraction: 0.863 ± 0.03 for the first, 0.921 ± 0.068 for the second.

SKBR3 BREAST and MHM BONE are within error of each other in surviving fraction: 0.975 ± 0.22 for the first, 0.982 ± 0.023 for the second.

Going from VP229 BREAST to SYO1 SYNOVIAL, the surviving fraction falls from 1.1 ± 0.12 to 0.859 ± 0.044.

ZR751 BREAST and KPD BONE are within error of each other in surviving fraction: 0.954 ± 0.017 for the first, 1 ± 0.049 for the second.

First: SIHA CERVIX
Second: DU4475 BREAST
The surviving fraction of the first is higher: 1.07 ± 0.055 for the first, 0.743 ± 0.13 for the second.

BT549 BREAST and COLO320DM LARGE INTESTINE are within error of each other in surviving fraction: 1.15 ± 0.11 for the first, 1.11 ± 0.08 for the second.

T47D BREAST and H23 LUNG are within error of each other in surviving fraction: 1.02 ± 0.047 for the first, 0.96 ± 0.053 for the second.

NCIH441 LUNG and HCT15 LARGE INTESTINE are within error of each other in surviving fraction: 1 ± 0.022 for the first, 0.971 ± 0.025 for the second.

SCC90 HEADNECK and MDAMB453 BREAST are within error of each other in surviving fraction: 0.839 ± 0.18 for the first, 1.05 ± 0.058 for the second.

Going from MG63 BONE to A549 LUNG, the surviving fraction falls from 0.998 ± 0.013 to 0.949 ± 0.036.

With MDAMB468 BREAST the surviving fraction was 0.996 ± 0.005.

Same assay, conditions: 10 nM; exposure time: 5 days

SUM149.B1*.S BREAST and 93VU HEADNECK are within error of each other in surviving fraction: 1.02 ± 0.021 for the first, 1.03 ± 0.11 for the second.

LM7 BONE and 143B BONE are within error of each other in surviving fraction: 1.07 ± 0.069 for the first, 1.02 ± 0.032 for the second.

SUM159 BREAST and SUM149 BREAST are within error of each other in surviving fraction: 1.14 ± 0.26 for the first, 1.21 ± 0.049 for the second.

Going from MDAMB361 BREAST to SAOS2 BONE, the surviving fraction rises from 0.839 ± 0.051 to 1.21 ± 0.042.

Compared with ASKA SYNOVIAL, HCC1395 BREAST is lower in surviving fraction: 1.09 ± 0.091 for the first, 0.9 ± 0.021 for the second.

HCC1954 BREAST and CME SYNOVIAL are within error of each other in surviving fraction: 1.11 ± 0.051 for the first, 1.25 ± 0.16 for the second.

First: VCAP PROSTATE
Second: YAMATO SYNOVIAL
The surviving fraction of the first is lower: 1.1 ± 0.028 for the first, 1.31 ± 0.062 for the second.

First: HCC202 BREAST
Second: HELA CERVIX
The surviving fraction of the first is higher: 1.22 ± 0.13 for the first, 0.984 ± 0.019 for the second.

SG27 HEADNECK and CAL72 BONE are the same in surviving fraction: 1.01 ± 0.086 for the first, 1.01 ± 0.024 for the second.

MDAMB134 BREAST and C33A CERVIX are within error of each other in surviving fraction: 0.977 ± 0.23 for the first, 0.914 ± 0.1 for the second.

Compared with SKBR3 BREAST, MHM BONE is higher in surviving fraction: 0.851 ± 0.057 for the first, 1.001 ± 0.0095 for the second.

Going from VP229 BREAST to SYO1 SYNOVIAL, the surviving fraction falls from 1.11 ± 0.028 to 0.868 ± 0.043.

ZR751 BREAST and KPD BONE are the same in surviving fraction: 1.01 ± 0.19 for the first, 1.01 ± 0.12 for the second.

Going from SIHA CERVIX to DU4475 BREAST, the surviving fraction falls from 1.07 ± 0.051 to 0.795 ± 0.19.

BT549 BREAST and COLO320DM LARGE INTESTINE are within error of each other in surviving fraction: 1.19 ± 0.077 for the first, 1.05 ± 0.072 for the second.

T47D BREAST and H23 LUNG are the same in surviving fraction: 1.01 ± 0.017 for the first, 1.01 ± 0.054 for the second.

NCIH441 LUNG and HCT15 LARGE INTESTINE are the same in surviving fraction: 1.01 ± 0.09 for the first, 1.01 ± 0.012 for the second.

Going from SCC90 HEADNECK to MDAMB453 BREAST, the surviving fraction rises from 0.951 ± 0.036 to 1.05 ± 0.043.

MG63 BONE and A549 LUNG are within error of each other in surviving fraction: 0.965 ± 0.016 for the first, 0.952 ± 0.042 for the second.

With MDAMB468 BREAST the surviving fraction was 0.985 ± 0.003.
